Consider two compounds from patent US20010031268A1, “Antigen preparations” (priority 1999, published 2001).

The test system of one test is Neisseria. The conditions noted are these: no catechol inducer.
Another test deals with E. coli. The settings on record: low inoculum levels (50-1000 bacterial cells/ml).
Test [1] deals with Neisseria meningitidis strain B16B6. Kind of test: Growth of Neisseria meningitidis culture (optical density at 600 nm) with and without norepinephrine bitartrate. It counts as cell-based. The settings on record: 100 micromolar added at 20 hours post-inoculation; MEM with NEAA, Vitox (iron) and ABS (iron chelator); OD 600 nm until 30 hours. How it is done:
A culture of Neisseria meningitidis strain B16B6 (obtainable from the National Collection of Type Cultures, PHLS, Colindale, London, UK) was grown overnight at 37 deg C. on a GC agar plate (Oxoid) containing 2% Vitox (Oxoid). Vitox is a defined growth supplement suitable for enrichment of culture media and contains, amongst other ingredients, a source of iron.
At the end of incubation, about 20 bacterial colonies were harvested from the GC agar plate and suspended in 100 microliters of sterile phosphate-buffered saline (PBS; Gibco). The resulting bacterial suspension was then grown at 37 deg C for 4 hours on a GC agar plate containing 2% Vitox. At the end of incubation, the agar plate was flooded with 2 ml of sterile PBS and the bacterial suspension transferred into a sterile container. Optical density of the suspension was then determined at 600 nm. An optical density at 600 nm of 0.1 is equivalent to about 2×10^8 cfu/ml of Neisseria meningitidis. […]
The test medium was incubated at 37 deg C. with shaking at 180 rpm. The optical density of the culture was measured at 600 nm at 2, 4 and 20 hours post-inoculation of the media.
At 20 hours post-inoculation, the test sample was divided into halves. […] Both half-samples were then further incubated at 37 deg C., and optical density at 600 nm measured every 2 hours until 30 hours post-inoculation. […]

The next test deals with Neisseria meningitidis. The test is described as follows: SDS-PAGE protein analysis of bacteria grown with and without norepinephrine bitartrate. It counts as cell-based. The text has this: Samples of “test” bacteria grown as described above in MEM containing NEAA, iron chelator (ABS) and iron (Vitox) both in the presence and absence of norepinephrine bitartrate were taken. The samples were centrifuged to pellet bacteria. The bacterial pellets obtained were resuspended in 50 microliters of TE buffer (Sambrook et al: 1989, Molecular cloning: A Laboratory Manual, Cold Spring Harbour Laboratory Press, N.Y.) and 200 microliters of SDS-PAGE solubilisation buffer added (Sambrook et al: as above). The mixture was then heated at 70 deg C to solubilize proteins. Samples and appropriate molecular weight markers were then run on 10% and 12% SDS-polyacrylamide gels. The gels were then stained with Coomassie blue stain, according to a standard method, and protein bands observed.
Culture was carried out in MEM medium containing NEAA, iron (Vitox) and an iron chelator (ABS), either with norepinephrine bitartrate added to the culture (lane 1), or without norepinephrine bitartrate (lane 2). Molecular weight markers (kD) are also shown (lane M).

Turning to `O=C(O)C(NCCNC(C(=O)O)c1ccccc1O)c1ccccc1O` (stereo not drawn) [EDDA, ethylene diamine di-ortho-hydroxyphenyl-acetic acid], the “growth of Neisseria under low-iron conditions” value in the test with Neisseria is “do not reliably allow good growth”. Besides, in the test on E. coli, the “growth of E. coli under low iron conditions and low inoculum levels” value is on record as “nor to a lesser extent do they allow good growth”.

`NC[C@H](O)c1ccc(O)c(O)c1` [norepinephrine bitartrate]: the “growth of a culture of Neisseria meningitidis” value in test [1] is “accelerated growth”. In the test with Neisseria meningitidis (compared with bacteria cultured without norepinephrine), the “newly expressed or overexpressed further proteins (SDS-PAGE)” value is “newly expressed or overexpressed further proteins with molecular weights of about 250 kDa, about 80 kDa, and about 28 kDa”. For the same compound, the “proteins expressed only when grown in the presence of the inducer (SDS-PAGE, Coomassie)” value in the test on Neisseria meningitidis (compared with bacteria grown in the absence of norepinephrine bitartrate, MEM with NEAA, Vitox, ABS) was “expressed proteins, including proteins with molecular weights of about 100 KDa and about 55 KDa”. Besides, the “over-expression of protein in comparison to bacteria grown without the inducer (SDS-PAGE)” value with Neisseria meningitidis (compared with bacteria grown without norepinephrine bitartrate) is recorded as “over-expression of an approximately 20 KDa protein”.
